Experimental data: EP0504290B1, “INHIBITORS OF PNEUMOCYSTIS CARINII DIHYDROFOLATE REDUCTASE” (CHIRON CORPORATION, priority 1989, dated 1991)
Like-named read-outs stand apart in the source and are kept apart here.

Key:
[1] = target: T1, recombinant human DHFR (Homo sapiens, UniProt P00374); test: Inhibition of recombinant human DHFR activity by substituted phenyl triazines at 25 µM DHF; assay type: biochemical
T1 sequence (P00374 1-187): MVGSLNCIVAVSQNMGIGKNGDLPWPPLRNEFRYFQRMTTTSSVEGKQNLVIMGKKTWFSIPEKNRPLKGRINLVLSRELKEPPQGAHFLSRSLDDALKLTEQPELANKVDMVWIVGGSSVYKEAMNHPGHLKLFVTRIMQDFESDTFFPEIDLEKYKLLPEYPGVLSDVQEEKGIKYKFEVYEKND

[2] = target: Pneumocystis carinii DHFR (Pneumocystis carinii, UniProt P16184); test: biochemical
Pneumocystis carinii DHFR, sequence (P16184 whole entry): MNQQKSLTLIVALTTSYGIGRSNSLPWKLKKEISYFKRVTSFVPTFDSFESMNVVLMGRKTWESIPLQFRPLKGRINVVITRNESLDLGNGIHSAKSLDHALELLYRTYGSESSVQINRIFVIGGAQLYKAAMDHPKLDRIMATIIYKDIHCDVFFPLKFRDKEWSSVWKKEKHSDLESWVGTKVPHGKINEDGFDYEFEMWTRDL

[3] = target: P. carinii DHFR (Pneumocystis carinii, UniProt P16184); test: biochemical
P. carinii DHFR, sequence (P16184 whole entry): as above

[4] = ratio of human DHFR Ki to P. carinii DHFR Ki

SMILES	IC50 [1] [µM]	IC50 [2] [µM]	Selectivity, Ki (human)/Ki(Pc) [2, 4]	further results
CC1(C)N=C(N)N=C(N)N1c1cccc([N+](=O)[O-])c1 [Substituent 3-NO2]	2.76	9.5	0.7	
CC1(C)N=C(N)N=C(N)N1c1cccc(COc2ccc(Cl)c(Cl)c2Cl)c1 [3-CH2Oϕ, 2',3',4'Cl3]	0.81	0.56	2.5	
CC1(C)N=C(N)N=C(N)N1c1cccc(COc2cccc(CO)c2)c1 [3-CH2Oϕ, 3'CH2OH]	0.97	1.8	0.9	
CCCCCCCCCCCOc1cccc(N2C(N)=NC(N)=NC2(C)C)c1 [3-O(CH2)10CH3]	8.8	1.33	11.3	
CC1(C)N=C(N)N=C(N)N1c1cccc(COc2cccc(Cl)c2)c1 [3-CH20ϕ, 3'Cl]	0.47	0.85	0.9	
CC1(C)N=C(N)N=C(N)N1c1cccc(OCc2ccccc2)c1 [Substituent 3-OCH2ϕ]		4.6		
COc1ccc(N2C(N)=NC(N)=NC2(C)C)cc1 [-OCH3]				IC50 [3]: 90 µM; Ki [3]: 0.315 µM
CC(=O)Nc1cccc(OCc2cccc(N3C(N)=NC(N)=NC3(C)C)c2)c1 [3-CH2Oϕ, 3'NHAc]		0.23		
CCCCCCOc1cccc(N2C(N)=NC(N)=NC2(C)C)c1 [3-O(CH2)5CH3]	6.4	1.52	7.2	
CC1(C)N=C(N)N=C(N)N1c1cccc(CNc2ccc(C#N)cc2)c1 [3-CH2NHϕ, 4'CN]	0.52	0.6	1.5	
Cc1cccc(OCc2cccc(N3C(N)=NC(N)=NC3(C)C)c2)c1 [3-CH20ϕ, 3'CH3]	0.65	1.4	0.8	
CC1(C)N=C(N)N=C(N)N1c1ccc(O)cc1 [-OH]				IC50 [3]: 250 µM; Ki [3]: 0.875 µM
COc1cccc(OCc2cccc(N3C(N)=NC(N)=NC3(C)C)c2)c1 [3-CH2Oϕ, 3'OCH3]	0.36	0.55	1.1	
CC1(C)N=C(N)N=C(N)N1c1ccc([N+](=O)[O-])cc1 [-NO2]				IC50 [3]: > 8330 µM; Ki [3]: > 2.9 µM
CC1(C)N=C(N)N=C(N)N1c1cccc(OCCOc2cccc(C(F)(F)F)c2)c1 [3-O(CH2)20ϕ, 3'CF3]		1.6		
Cc1ccc(N2C(N)=NC(N)=NC2(C)C)cc1 [-CH3]				IC50 [3]: 30 µM; Ki [3]: 0.105 µM
CC(=O)c1cccc(N2C(N)=NC(N)=NC2(C)C)c1 [Substituent 3-COCH3]	21			
CCOc1cccc(N2C(N)=NC(N)=NC2(C)C)c1 [Substituent 3-OEt]	13.8			
CC1(C)N=C(N)N=C(N)N1c1ccc(Cl)cc1 [Substituent 4-Cl, 4,6-diamino-1-(p-chlorophenyl)1,2-dihydro-2,2-dimethyl-s-triazine, reference compound]		7.5		times more tightly bound to human DHFR than to P. carinii DHFR ([1]; human DHFR versus P. carinii DHFR): ~2.5 times; Ki [2]: 0.109 µM; IC50 [3]: 20 µM; Ki [3]: 0.07 µM
CC1(C)N=C(N)N=C(N)N1c1ccc(C(F)(F)F)cc1 [-CF3]				IC50 ([3]; 100 µM NADPH, 100 µM DHF, 1 nM P. carinii DHFR, 25 C, read-out: IC5O (100 µM DHF)): 25 µM; Ki ([3]; read-out: Ki): 0.0875 µM
CC1(C)N=C(N)N=C(N)N1c1cccc(CNc2cc(C(N)=O)cc(C(N)=O)c2)c1 [3-CH2NHϕ, 3',5'(CONH2)2]	2.8	1.07		Selectivity, Ki (human)/Ki(Pc) [2]: 4.5
CC1(C)N=C(N)N=C(N)N1c1cccc(COc2cccc3ccccc23)c1 [3-CH20(a)Naphthyl]	0.56	0.36		Selectivity, Ki (human)/Ki(Pc) [2]: 2.6
CCCCCCCCCCCCCCOc1cccc(N2C(N)=NC(N)=NC2(C)C)c1 [3-O(CH2)13CH3]	31.6	23.6	2.3	
CCOC(=O)c1cccc(N2C(N)=NC(N)=NC2(C)C)c1 [Substituent 3-CO2Et]	114	166	1.2	
